Assays:
[1] = tested on: S. aureus ATCC 43300 (MRSA); assay: Minimum inhibitory concentration, broth microdilution; assay type: cell-based, Staphylococcus aureus; conditions: Staphylococcus aureus; compound alone; S. aureus ATCC 43300 (MRSA); CAMHB, 18 h; read-out: MIC
Method: (§1) The compounds were then analyzed for antibiotic repotentiation activity. […] The tested strains included USA300, which is a common and particularly virulent strain of community-acquired MRSA.

S. aureus USA300 (MRSA) [2] = assay: as above; assay type: cell-based, Staphylococcus aureus; conditions: Staphylococcus aureus; compound alone; S. aureus USA300 (MRSA); CAMHB, 18 h; read-out: MIC
Method: as §1

S. aureus 43300 (MRSA) = assay: Antibiotic repotentiation (antibiotic MIC with/without compound); assay type: cell-based, Staphylococcus aureus; conditions: +50 μM compound
S. aureus USA300 (MRSA) [3] = assay: as above; assay type: cell-based, Staphylococcus aureus; conditions: +50 μM compound, S. aureus USA300 (MRSA)
[4] = tested on: S. aureus NR-49120 (VRSA); assay: as above; assay type: cell-based, Staphylococcus aureus; conditions: +50 μM compound, S. aureus NR-49120 (VRSA)
Method: (§2) The overnight culture was diluted into fresh CAMHB to a concentration of 5×10^5 CFU/ml. […] On the same plate, a standard microdilution MIC with the tested antibiotics and no added compound was also performed to compare the antibiotic MIC in the presence and absence of compound. […] Fold reductions were calculated by dividing the MIC of the antibiotic without compound by the MIC of the antibiotic in the presence of compound.

S. aureus USA100 (MRSA) = assay: as above; assay type: cell-based, Staphylococcus aureus; conditions: +50 μM compound, S. aureus USA100 (MRSA)
Method: as §2

S. epidermidis 49461 = assay: Antibiotic repotentiation (oxacillin MIC with/without compound); assay type: cell-based, Staphylococcus epidermidis; conditions: +50 μM compound, S. epidermidis 49461
Method: as §2
Antibiotic potentiation in S. epidermidis was also investigated.

MRSA 43300 biofilm = assay: Biofilm inhibition, crystal violet assay; assay type: cell-based, Staphylococcus aureus; conditions: 30 h
Method: (§3) A standard static crystal violet assay was used to quantify biofilm inhibition.^45 Cultures of S. aureus or S. epidermidis were grown overnight in TSBG (tryptic soy broth with 5% glucose) at 37° C. with shaking. These cultures were used to inoculate fresh TSBG to a calculated optical density of 0.01 at 600 nm (OD600). […] Untreated aliquots were used as a positive control and water served as a negative control. 100 μl of these suspensions were added to the wells of a 96-well polyvinylchloride microtiter plate. […] After incubation, media was discarded and the plates were washed with water to remove non-adherent cells. Adherent biofilms were stained with 110 μl of crystal violet (0.1% in water) and incubated at room temperature for thirty minutes. The crystal violet staining solution was discarded and plates were washed with water to remove excess stain. The resulting stained biofilms were solubilized with 200 μL of 95% ethanol for 10 minutes. 125 μl of the ethanol solutions were transferred to a clear polystyrene microtiter plate for evaluation. Absorbance at 540 nm was recorded using a BioTek Synergy H1 microplate reader. The absorbance of the negative control lanes was subtracted from the experimental values to account for background staining. Percent inhibition was calculated by comparison of the absorbance values of control versus treated wells under identical conditions.
(§4) Antibiotic resistance and biofilm formation share similar regulatory mechanisms. […] Biofilm inhibition was first assessed in S. aureus 43300, a methicillin-resistant strain (see Table 18). As described in Materials and Methods, a standard crystal violet assay was used to assess biofilm inhibition by the tested compounds. The IC50 is described as the compound concentration required to inhibit 50% of biofilm formation. The standard deviation is calculated from at least 3 independent experiments.

S. aureus 29213 biofilm = assay: Biofilm inhibition, crystal violet assay; assay type: cell-based; conditions: Staphylococcus aureus, 30 h
Method: as §3, §4
(§5) The biofilm inhibition activity of loratadine was further explored in other strains of S. aureus. Loratadine was capable of inhibiting biofilm formation in all tested strains of S. aureus, including methicillin-resistant and vancomycin-resistant strains.

[5] = tested on: S. aureus NR-49120 biofilm; assay: Biofilm inhibition, crystal violet assay; assay type: cell-based; conditions: Staphylococcus aureus, NR49120BIOFILM, S. aureus NR-49120 (methicillin and vancomycin resistant), 30 h
Method: as §3, §4, §5

[6] = tested on: S. aureus NR-50109 biofilm; assay: Biofilm inhibition, crystal violet assay; assay type: cell-based; conditions: Staphylococcus aureus, NR50109BIOFILM, S. aureus NR-50109 (methicillin and vancomycin resistant), 30 h
Method: as §3, §4, §5

S. aureus USA100 biofilm = assay: Biofilm inhibition, crystal violet assay; assay type: cell-based; conditions: Staphylococcus aureus, S. aureus USA100 (MRSA), 30 h
Method: as §3, §4, §5

S. aureus USA300 biofilm = assay: Biofilm inhibition, crystal violet assay; assay type: cell-based; conditions: Staphylococcus aureus, S. aureus USA300 (MRSA), 30 h
Method: as §3, §4, §5

Compound: CCOC(=O)N1CCC(=C2c3ccc(Cl)cc3CCc3cccnc32)CC1 [Loratadine, ethyl 4-(8-chloro-5,6-dihydrobenzo[1,2]cyclohepta[2,4-b]pyridin-11-ylidene)piperidine-1-carboxylate]
- MIC [1]: > 200 µM
- MIC (S. aureus USA300 (MRSA) [2]): > 200 µM
- Oxacillin MIC (S. aureus 43300 (MRSA); S. aureus ATCC 43300 (MRSA)): 1 µg/mL
- Fold Reduction (S. aureus 43300 (MRSA); oxacillin MIC, S. aureus 43300 (MRSA)): 32
- Oxacillin MIC (S. aureus USA300 (MRSA) [3]): 0.5 µg/mL
- Fold Reduction (S. aureus USA300 (MRSA) [3]; oxacillin MIC): 64
- Oxacillin MIC [4]: 16 µg/mL
- Fold Reduction ([4]; oxacillin MIC): 8
- Oxacillin MIC (S. aureus USA100 (MRSA)): 0.5 µg/mL
- Fold Reduction (S. aureus USA100 (MRSA); oxacillin MIC): 512
- Oxacillin MIC (S. epidermidis 49461): 16 µg/mL
- Fold Reduction (S. epidermidis 49461; oxacillin MIC): 1
- IC50 (MRSA 43300 biofilm): 11.5 µM
- IC50 (MRSA 43300 biofilm; Staphylococcus aureus, MRSA): 11.4 µM
- IC50 (S. aureus 29213 biofilm): 25.9 ± 2.36 µM
- IC50 [5]: 59.9 ± 1.29 µM
- IC50 [6]: 19.1 ± 2.87 µM
- IC50 (S. aureus USA100 biofilm): 22.2 ± 6.51 µM
- IC50 (S. aureus USA300 biofilm): 32.8 ± 5.9 µM
